Earlier results in patent US8114906B2, “Essential fatty acids in the treatment and/or inhibition of depression in patients with coronary heart or artery disease” (Abbott Products GmbH, priority 2004, dated 2012).

Tests used:
[1] = test system: treatment resistant depression; conditions: EPA added to treatment
[2] = test system: depression in post-myocardial patients; conditions: one study

SMILES	symptoms of treatment resistant depression [1]	effects in post-myocardial patients with concomitant depression [2]
CC/C=C\C/C=C\C/C=C\C/C=C\C/C=C\CCCC(=O)OCC [EPA, eicosapentanoic acid ethyl ester]	symptoms remission	–
CN[C@H]1CC[C@@H](c2ccc(Cl)c(Cl)c2)c2ccccc21 [sertraline]	–	beneficial effects
